# Tested on: solid tumor cell lines
# Assay: 3-day proliferation assay (CellTiter-Glo)
# Type: cell-based, human
# Conditions: for IC50: Homo sapiens
# Procedure: Various tumor cell lines were obtained from different sources including; the American Type Cell Culture Collection, the Developmental Therapeutics Program, the National Cancer Institute, the German Resource Center for Biological Material and the European Collection of Animal Cell Cultures. Cell lines were typically grown in […] containing 10% FBS. Some cell lines were grown in media specified by the vendor. A 3-day proliferation assay using CellTiter-Glo (CTG, Promega) was performed to measure the growth inhibition by the compounds at 0–30 µM. Cell growth was determined relative to untreated (DMSO) controls. EC50's were calculated from inhibition curves using a 4- or 6-parameter fitting algorithm in the Assay Client application.
compound,measurement,setting,value
Cn1ncc(Cl)c1-c1cc(C(=O)N[C@H](CN)Cc2cccc(F)c2)sc1Cl [GSK2110183],solid tumor cell lines with EC50<1 µM,"178 cell lines, 3 days, CTG",21%
same,IC50,"22Rv1, 22Rv1, Prostate",0.706 µM
same,IC50,"647-V, 647V, Bladder",11.5 µM
same,IC50,"786-0, 786-O, Kidney",1.64 µM
same,IC50,"A204, A204, Sarcoma",2.14 µM
same,IC50,"A549, A549, Lung",3.28 µM
same,IC50,"A673, A673, Sarcoma",19.9 µM
same,IC50,"A2780, A2780, Ovary",4.03 µM
same,IC50,"A-375, A375, Skin",8.68 µM
same,IC50,"A-427, A427, Lung",19 µM
same,IC50,"ACHN, Kidney",3.71 µM
same,IC50,"AGS, Stomach",0.964 µM
same,IC50,"BE(2)-C, BE2C, Neuroblastoma",1.47 µM
same,IC50,"BFTC-905, BFTC905, Bladder",2.64 µM
same,IC50,"BT-20, BT20, Breast",0.311 µM
same,IC50,"BXPC-3, BXPC3, Pancreas",> 30 µM
same,IC50,"C3A, Liver",1.75 µM
same,IC50,"C32TG, Skin",0.975 µM
same,IC50,"C-33-A, C-33A, Cervix",0.541 µM
same,IC50,"C-41, Cervix",15.2 µM
same,IC50,"CAL-27, CAL27, Head & Neck",8.01 µM
same,IC50,"CAL-62, CAL62, Thyroid",10.4 µM
same,IC50,"CCF-STTG1, CCFSTTG1, Brain",0.673 µM
same,IC50,"CGTH-W-1, CGTHW1, Thyroid",3.07 µM
same,IC50,"CHL-1, CHL1, Skin",3.79 µM
same,IC50,"CHP-212, CHP212, Neuroblastoma",2.32 µM
same,IC50,"COLO 205, COLO205, Colon",7.58 µM
same,IC50,"COLO 320DM, COLO320DM, Colon",1.34 µM
same,IC50,"COLO 704, COLO704, Ovary",0.339 µM
same,IC50,"COR-L23, CORL23, Lung",3.92 µM
same,IC50,"Calu-3, CALU3, Lung",3.31 µM
same,IC50,"Calu-6, CALU6, Lung",5.49 µM
same,IC50,"Caov-3, CAOV3, Ovary",6.18 µM
same,IC50,"Capan-2, Capan2, Pancreas",9.38 µM
same,IC50,"DBTRG-05MG, DBTRG05MG, Brain",4.43 µM
same,IC50,"DKMG, Brain",3.68 µM
same,IC50,"DLD-1, DLD1, Colon",8.45 µM
same,IC50,"DU-145, DU145, Prostate",6.54 µM
same,IC50,"DU-4475, DU4475, Breast",2.27 µM
same,IC50,"DoTc2-4510, DoTc24510, Cervix",2.25 µM
same,IC50,"EFM-19, EFM19, Breast",0.117 µM
same,IC50,"EKVX, Lung",5.54 µM
same,IC50,"ES2, Ovary",4.52 µM
same,IC50,"FaDu, Head & Neck",10.5 µM
same,IC50,"G-401, G401, Head & Neck",1.12 µM
same,IC50,"GCT, Sarcoma",5.89 µM
same,IC50,"H4, Brain",2.99 µM
same,IC50,"HCC70, HCC70, Breast",0.081 µM
same,IC50,"HCC1954, HCC1954, Breast",0.32 µM
same,IC50,"HCC 2998, HCC2998, Colon",2.2 µM
same,IC50,"HCT-116, HCT116, Colon",5.64 µM
same,IC50,"HMCB, Skin",4.46 µM
same,IC50,"HN5, Head & Neck",2.96 µM
same,IC50,"HOS, Sarcoma",2.46 µM
same,IC50,"HPAF-II, HPAFII, Pancreas",7.49 µM
same,IC50,"HT3, Cervix",2.66 µM
same,IC50,"HT-29, HT29, Colon",2.02 µM
same,IC50,"HT-1080, HT1080, Sarcoma",7.92 µM
same,IC50,"HUVEC, Normal Endothelial",3 µM
same,IC50,"HeLa, Cervix",6.33 µM
same,IC50,"Hep3B, Liver",0.399 µM
same,IC50,"Hs746T, Stomach",2.07 µM
same,IC50,"IGROV-1, IGROV1, Ovary",0.054 µM
same,IC50,"J82, Bladder",2.07 µM
same,IC50,"KATO III, KATOIII, Stomach",0.571 µM
same,IC50,"KHOS-240S, KHOS240S, Sarcoma",8.15 µM
same,IC50,"KM12, KM12, Colon",6.49 µM
same,IC50,"KPL-1, KPL1, Breast",3.83 µM
same,IC50,"KYSE-30, KYSE30, Oesophagus",3.44 µM
same,IC50,"LNCaP, Prostate",0.076 µM
same,IC50,"LS174T, Colon",3.47 µM
same,IC50,"LS-1034, LS1034, Colon",3.17 µM
same,IC50,"M14, Skin",4.88 µM
same,IC50,"MC-IXC, MCIXC, Neuroblastoma",1.05 µM
same,IC50,"MCF7, MCF7, Breast",0.473 µM
same,IC50,"MCF-10A, MCF10A, Normal Breast",0.644 µM
same,IC50,"MDA-MB-175-VII, MDAMB175-VII, Breast",0.189 µM
same,IC50,"MDA-MB-231, MDAMB231, Breast",13.2 µM
same,IC50,"MDA-MB-453, MDAMB453, Breast",1.17 µM
same,IC50,"MDA-MB-468, MDAMB468, Breast",0.995 µM
same,IC50,"MES-SA, MESSA, Sarcoma",0.66 µM
same,IC50,"MIA PaCa-2, MiaPaCa, Pancreas",1.71 µM
same,IC50,"NCI-H69, NCIH69, Lung",1.39 µM
same,IC50,"NCI-H82, NCIH82, Lung",29.3 µM
same,IC50,"NCI-H146, NCIH146, Lung",11.3 µM
same,IC50,"NCI-H157, NCIH157, Lung",2.03 µM
same,IC50,"NCI-H187, NCIH187, Lung",0.263 µM
same,IC50,"NCI-H209, NCI-H209, Lung",4.43 µM
same,IC50,"NCI-H226, NCIH226, Lung",6.14 µM
same,IC50,"NCI-H292, NCIH292, Lung",4.82 µM
same,IC50,"NCI-H322, NCIH322, Lung",9.34 µM
same,IC50,"NCI-H358, NCI-H358, Lung",1.93 µM
same,IC50,"NCI-H446, NCIH446, Lung",1.14 µM
same,IC50,"NCI-H460, NCIH460, Lung",3.73 µM
same,IC50,"NCI-H508, NCIH508, Lung",0.309 µM
same,IC50,"NCI-H520, NCIH520, Lung",0.935 µM
same,IC50,"NCI-H630, NCIH630, Lung",5.95 µM
same,IC50,"NCI-H661, NCIH661, Lung",5.5 µM
same,IC50,"NCI-H716, NCIH716, Colon",3.85 µM
same,IC50,"NCI-H747, NCIH747, Lung",2.05 µM
same,IC50,"NCI-H1563, NCIH1563, Lung",0.582 µM
same,IC50,"NCI-H1792, NCIH1792, Lung",4.68 µM
same,IC50,"NCI-H2030, NCIH2030, Lung",5.67 µM
same,IC50,"NCI-H2052, NCIH2052, Lung",4.75 µM
same,IC50,"NCI-H2081, NCIH2081, Lung",0.73 µM
same,IC50,"NCI-H2122, NCIH2122, Lung",2.97 µM
same,IC50,"NCI-H2170, NCI-H2170, Lung",1.56 µM
same,IC50,"NCI-H2228, NCIH2228, Lung",0.926 µM
same,IC50,"NCI-N87, NCIN87, Stomach",1.29 µM
same,IC50,"NCI/ADR-RES, NCIADRRES, Breast",12.3 µM
same,IC50,"OE19, OE19, Oesophagus",5.52 µM
same,IC50,"OE21, OE21, Oesophagus",0.256 µM
same,IC50,"OE33, OE33, Oesophagus",8.07 µM
same,IC50,"OV-90, OV90, Ovary",4.69 µM
same,IC50,"OVCAR-3, OVCAR3, Ovary",5.85 µM
same,IC50,"OVCAR-4, OVCAR4, Ovary",20 µM
same,IC50,"OVCAR-5, OVCAR5, Ovary",7.72 µM
same,IC50,"PANC-1, Panc1, Pancreas",4.42 µM
same,IC50,"PC3, Prostate",3.02 µM
same,IC50,"PL45, PL45, Pancreas",6.98 µM
same,IC50,"Panc 02.03, Panc02.03, Pancreas",14.4 µM
same,IC50,"RD, Sarcoma",11.3 µM
same,IC50,"RD-ES, RDES, Sarcoma",2.41 µM
same,IC50,"RKO, Colon",1.46 µM
same,IC50,"SAOS-2, SAOS2, Sarcoma",5.35 µM
same,IC50,"SCC12, SCC12, Head & Neck",3.85 µM
same,IC50,"SCC-9, SCC9, Head & Neck",6.58 µM
same,IC50,"SCC-13, SCC-13, Head & Neck",18.8 µM
same,IC50,"SCC-15, SCC15, Head & Neck",4.17 µM
same,IC50,"SCC-25, SCC-25, Head & Neck",4.69 µM
same,IC50,"SCLC3, Lung",0.22 µM
same,IC50,"SF-295, SF295, Brain",0.835 µM
same,IC50,"SF-539, SF539, Brain",0.891 µM
same,IC50,"SH4, Skin",> 30 µM
same,IC50,"SHP77, SHP77, Lung",5.22 µM
same,IC50,"SJRH30, SJRH30, Sarcoma",0.919 µM
same,IC50,"SK-BR-3, SKBR3, Breast",0.371 µM
same,IC50,"SK-LMS-1, SKLMS1, Sarcoma",7.98 µM
same,IC50,"SK-MEL-1, SKMEL1, Skin",2.14 µM
same,IC50,"SK-MEL-28, SKMEL28, Skin",3.23 µM
same,IC50,"SK-MES-1, SKMES-1, Lung",4.55 µM
same,IC50,"SK-N-AS, SKNAS, Neuroblastoma",7.09 µM
same,IC50,"SK-OV-3, SKOV3, Ovary",1.1 µM
same,IC50,"SK-UT-1, SKUT1, Sarcoma",0.504 µM
same,IC50,"SKNF1, Neuroblastoma",0.886 µM
same,IC50,"SN12C, Kidney",> 30 µM
same,IC50,"SNB-75, SNB75, Brain",1.47 µM
same,IC50,"SNU1, SNU1, Stomach",2.15 µM
same,IC50,"SNU-5, SNU5, Stomach",11.8 µM
same,IC50,"SNU-16, SNU16, Stomach",6.58 µM
same,IC50,"SNU-398, SNU398, Liver",27.3 µM
same,IC50,"SNU-449, SNU449, Liver",6.66 µM
same,IC50,"SW48, SW48, Colon",0.807 µM
same,IC50,"SW480, SW480, Colon",> 30 µM
same,IC50,"SW579, SW579, Thyroid",1.82 µM
same,IC50,"SW684, SW684, Sarcoma",1.04 µM
same,IC50,"SW756, SW756, Cervix",10.4 µM
same,IC50,"SW780, SW780, Bladder",8.44 µM
same,IC50,"SW872, SW872, Sarcoma",0.919 µM
same,IC50,"SW900, SW900, Lung",15.6 µM
same,IC50,"SW1088, SW1088, Brain",0.952 µM
same,IC50,"SW1417, SW1417, Colon",3.96 µM
same,IC50,"SW1783, SW1783, Brain",0.592 µM
same,IC50,"SW1990, SW1990, Pancreas",13.3 µM
same,IC50,"Skut1B, Sarcoma",0.021 µM
same,IC50,"T47D, T-47D, Breast",0.331 µM
same,IC50,"T84, Colon",8.49 µM
same,IC50,"TE 381.T, TE381T, Sarcoma",1.63 µM
same,IC50,"TK-10, TK10, Kidney",4.8 µM
same,IC50,"U20S, Sarcoma",> 30 µM
same,IC50,"U138-MG, U138MG, Brain",2.81 µM
same,IC50,"U-87 MG, U87MG, Brain",4.97 µM
same,IC50,"U-251, U251, Brain",2.43 µM
same,IC50,"UACC-62, UACC62, Skin",2.09 µM
same,IC50,"UACC-257, UACC257, Skin",5.26 µM
same,IC50,"UMUC3, UMUC3, Bladder",10 µM
same,IC50,"YAPC, Pancreas",8.3 µM
same,IC50,"ZR-75-1, ZR75-1, Breast",0.088 µM

# Reference: paper PMC4076210, “Discovery of Novel AKT Inhibitors with Enhanced Anti-Tumor Effects in Combination with the MEK Inhibitor” (PLoS ONE, 2014)
